According to publication PMC8524854, “A novel dual-prodrug carried by cyclodextrin inclusion complex for the targeting treatment of colon cancer” (Journal of Nanobiotechnology, 2021):
Read-outs that look alike come from different tables or passages of the source. Marks after values point to notes of the source that are not given here.

Key:
[1] = tested on: SW620 xenografts; assay: H&E pathological analysis of tumor tissue (necrosis rate); type: in vivo, nude mice; settings: 15 days post-administration
Procedure: (§1) 15 days post-administration, all nude mice were sacrificed. The tumor tissues were collected, stained with H&E, and observed under an inverted microscope (400 ×). In addition, the TUNEL test was performed to detect cell apoptosis. Meanwhile, the expressions of both VEGFR-3 and Ki-67 were detected by ELISA.

[2] = tested on: Kunming mice; type: in vivo; settings: for Amount (start/end), survival: observed 14 d; for Bodyweight End: end of 14 d observation
Procedure: All animals were given a single oral gavage of 0.2 mL of different dosage forms, and their body weight was monitored every day. Meanwhile, the toxicity and mortality of all animals were observed every day. The conventional changes such as the cases of the diet, urine, and feces were recorded. On the 15th day after treatment, the blood of each group was collected from the heart and centrifuged at 1,000 × g for 10 min to collect serum. An automated biochemical analyzer was used to detect serum alanine aminotransferase (ALT), aspartate aminotransferase (AST), blood urea nitrogen (BUN), and creatinine (Cr). Meanwhile, the heart, liver, lung, and kidney were quickly excised, washed with normal saline, and weighed. The visceral index is estimated according to the following formula as Viscera Index (%) = Viscera Weight / Body Weight × 100. And then, all the tissues were fixed with 10% formalin and stained with hematoxylin & eosin (H&E) for pathological analysis.

[3] = tested on: SW620 xenografts; assay: TUNEL test of tumor tissue (apoptosis rate); type: in vivo, nude mice; settings: 15 days post-administration
Procedure: as §1

[4] = tested on: VEGFR-3; assay: VEGFR-3 expression in tumor tissue; type: in vivo, nude mice; settings: tumor tissue of SW620 xenografts
Procedure: as §1

[5] = tested on: SW620 xenografts; assay: Pharmacodynamic evaluation, tumor growth inhibition; type: in vivo, BALB/C nude mice; settings: every two days for 7 times, tumor weight on day 25 post-implantation
Procedure: Ten days after tumor transplantation, the SW620 tumor-bearing mice were randomly divided into 8 groups with 5 mice in each group when the tumors reached about 100 mm^3. The animals were weighed before treatment, and the measurement was continued every 2 days. The two axes of the tumor were measured with a vernier micrometer (L, longest axis; W, shortest axis). Tumor volume (mm^3) was calculated as ½ (L × W^2). Anti-tumor activity was evaluated by tumor growth inhibition (TGI), which was the mean tumor weight (MTW) of the treated group (TG) relative to the saline-treated control group (CG) on day 15, as calculated according to the formula [47]. […].

[6] = tested on: Ki-67; assay: Ki-67 expression in tumor tissue; type: in vivo, nude mice; settings: tumor tissue of SW620 xenografts
Procedure: as §1

[7] = tested on: SW620 cells; assay: MTT cell-growth inhibition; type: cell-based, human; settings: 24 h, 48 h, 72 h, 5-FU at 20 μg/mL
Procedure: (§2) CaCo-2 and SW620 cells were used as model cells to evaluate the anticancer effects in vitro. Single-cell suspension was prepared with DMEM containing 10% Gibco FBS and 1% penicillin–streptomycin. The cells were seeded in a 96-well plate (3500 cells/well) and incubated respectively for 24 h, 48 h, and 72 h at 37 °C with 5% CO2. […] The medium was removed, and cells were washed three times with PBS before incubation with MTT for 4 h at 37 °C. After the medium was removed, 100 μL of DMSO was added to the well for 10 min. The absorbance of the solution was measured at 570 nm by Multimode Reader (Bio Tek Synergy H1).

[8] = tested on: CaCo-2 cells; assay: MTT cell-growth inhibition; type: cell-based, human; settings: 24 h, 48 h, 72 h, 5-FU at 20 μg/mL
Procedure: as §2

[9] = Pharmacokinetics: butyric acid in plasma after gavage; type: in vivo, SW620 tumor-bearing BALB/C nude mice; settings: gavage 0.366 g/kg
Procedure: SW620 tumor-bearing mice were randomly divided into 3 groups (n = 5). […] The blood was collected respectively from the heart at 0.25, 0.5, 1, 2, 3, 4, 6, 8, 12, 24, 36, 48, and 72 h after administration. The whole blood was quickly centrifuged at 2000 × g for 5 min, and the upper plasma was precisely aspirated. Then 0.35 mL of methanol was added, vortexed for 2 min, and centrifuged at 3350 × g for 15 min. The supernatant was used to detect butyric acid by HPLC [45]. The pharmacokinetic parameters were calculated by non-compartmental analysis using Drug Analysis System (DAS 2.1.1, Shanghai, China).

[10] = tested on: SW620 cells; assay: Cell apoptosis, Annexin V/PI flow cytometry; type: cell-based, human; settings: 30 μM, 48 h
Procedure: For the cell apoptosis detection, the cells in the different groups were washed three times with PBS and incubated with Annexin V-FITC solution for 10 min. Then, flow cytometry analysis was performed to detect the FITC and PI fluorescent intensity and report the percentage of the cell population within each plot quadrant.

[11] = In vitro release of BBA by dialysis method; type: physicochemical; settings: during the first 24 h, PBS with 0.5% Tween 80, pH 7.4, 37 °C
Procedure: Release of BBA from BBA/CM-β-CD and BBA/FA-PEG-CM-β-CD was investigated in vitro using the dialysis method. […] At different time points (0.25, 0.5, 1, 2, 3, 4, 6, 8, 12, 48, 72 and 96 h), 1.0 mL of release medium was removed and replaced with fresh medium.

[12] = tested on: SW620 cells; assay: Cell cycle analysis, propidium iodide flow cytometry; type: cell-based, human; settings: 48 h
Procedure: For the cell cycle analysis, the cells in the different groups were washed three times with PBS and incubated with 1 mL of pre-cooled 70% alcohol at 4 °C for 24 h. After the cells were fixed, centrifuged at 300 × g for 5 min to collect the cells. 1 mL of cold PBS was added to re-suspend the cells and centrifuged at 300 × g for 5 min to remove the supernatant. 10 μL of RNaseA (50 ×) and 25 μL of propidium iodide (20 ×) in 0.5 mL of buffer were added. Finally, flow cytometry was used for cell cycle detection.

[13] = Solubility observed during carrier synthesis; type: physicochemical; settings: water
[14] = Kunming mice, single oral gavage
[15] = Kunming mice, before single oral gavage
[16] = serum, Kunming mice, 15th day after single oral gavage

Molecule	average necrosis rate [1] [%]	Amount (start/end), survival [2, 14]	ALT ([2]; mouse, in vivo, po) [U/L]	Average weight change rate ([2]; mouse, in vivo, po)	Bodyweight Start ([2]; mouse, in vivo, po) [g]	Cr ([2]; mouse, in vivo, po) [µmol/L]	apoptosis rate (TUNEL) [3] [%]	VEGFR-3 positive area [4]	mean tumor inhibitory rate [5]	Bodyweight Start [2, 15] [g]	Bodyweight End [2, 14] [g]	ALT [2, 16] [U/L]	AST [2, 16] [U/L]	BUN [2, 16] [mmol/L]	cell-proliferation inhibition effect [7]	cell-proliferation inhibition effect [8]	other results
Nc1ccc(O)c(C(=O)O)c1 [5-ASA, 5-aminosalicylic acid]	15	5/5	23.20 ± 2.87	4.63%	18.58 ± 0.41	9.55 ± 0.36	2.44	significantly reduced	31.33% ± 7.17%	–	–	–	–	–	–	–	–
CCCC(=O)[O-].[Na+] [NaB, sodium butyrate]	10	5/5	–	–	–	–	1.45	significantly reduced	15.30% ± 5.61%	18.24 ± 0.53	19.14 ± 0.52	17.37 ± 1.77	58.17 ± 4.75	8.60 ± 0.98	–	–	Average weight change rate ([2]; Kunming mice, single oral gavage, start to end): 4.93%
O=c1[nH]cc(F)c(=O)[nH]1 [5-FU, 5-fluorouracil]	50	5/5	292.50 ± 6.60	− 4.46* %	18.82 ± 0.61	7.45 ± 2.91	8.87	significantly reduced	85.85% ± 2.89%	–	–	–	–	–	drastically enhanced the cell proliferation inhibition rate compared with the BBA group	drastically enhanced the cell proliferation inhibition rate compared with the BBA group	Ki-67 positive expression [6]: significant decrease of the positive expression; serum biochemical analysis indexes ([2]; mouse, in vivo): AST and ALT increased significantly; AST ([2]; mouse, in vivo, po): 254.00 ± 53.4 U/L; BUN ([2]; mouse, in vivo, po): 6.92 ± 1.20 mmol/L; Heart index ([2]; mouse, in vivo, po): 0.81 ± 0.28%; Lung index ([2]; mouse, in vivo, po): 0.85 ± 0.11%; decrease of average body weight ([2]; mouse, in vivo, po): 4.46%
2-butyryl oxy-5-butylaminyl benzoic acid [BBA]	20	5/5	–	–	–	–	3.27	significantly reduced	41.76% ± 7.56%	18.48 ± 0.63	18.16 ± 0.63	18.53 ± 0.65	57.27 ± 10.20	6.32 ± 0.97	some cell-proliferation inhibition effect	some cell-proliferation inhibition effect	AUC0-t [9]: 219.263 ± 5.360 µg·h/mL; CL [9]: 0.21267 ± 0.00447 mL/min/kg; Cmax [9]: 35923 ± 826 ng/mL; MRT0-t [9]: 4.769 ± 0.115 h; apoptotic rate including early apoptosis and late apoptosis [10]: 32.21% ± 8.26%; in vitro accumulative release of BBA [11]: 90%; Cr [2, 16]: 8.63 ± 1.96 µmol/L; cell cycle arrest [12]: mainly arrested at the G0/G1 phase
Nc1nc2ncc(CNc3ccc(C(=O)N[C@@H](CCC(=O)O)C(=O)O)cc3)nc2c(=O)[nH]1 [FA, Folic acid]	–	–	–	–	–	–	–	–	–	–	–	–	–	–	–	–	solubility [13]: too poor
